Laboratory results taken from the supplement of paper PMC10307832.

Tests used:
Assay in all cases: relative viability (nuclei count vs DMSO), 5 days (fraction); higher = more cells survive
[1] = compound: CC(C)Oc1cc(Nc2nc(N[C@@H](C)c3ccc(F)cn3)ncc2Cl)n[nH]1 [AZ23]
Summary of the method: (§1)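 For viability, nuclei in each treated well were divided by nuclei in vehicle wells and the median across plates was taken. Lung cancer cell lines in 1536-well plates were pinned with five library-drug doses (not always all listed) spaced by √10, cultured 5 days without medium change, and imaged at 4× after Hoechst staining, with plates passing only at control CV below 25% and at least one doubling.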

[2] = compound: CC(C)S(=O)(=O)C1=CC=CC=C1NC2=NC(=NC(=C2Cl)N)NC3=C(C=C(C=C3)N4CCC(CC4)C(=O)N)OC [HG-5-88-01]
Summary of the method: as §1

[3] = compound: CCCCCCCCCCCC1=C(O)C(=O)C=C(O)C1=O [Embelin]
Summary of the method: as §1

[4] = compound: C[C@@H]1CN(CC(=O)Nc2ccc3c(c2)Cc2cccc(-c4cc(=O)cc(N5CCOCC5)o4)c2S3)C[C@H](C)O1
Summary of the method: as §1

[5] = compound: Clc1ccc(Nc2nnc(Cc3ccncc3)c3ccccc23)cc1 [Vatalanib]
Summary of the method: as §1

Cell Line	relative viability ([1]; 0.01 µM)	relative viability ([1]; 0.03162 µM)	relative viability ([1]; 0.3162 µM)	relative viability ([2]; 0.04 µM)	relative viability ([2]; 0.1265 µM)	relative viability ([2]; 0.4 µM)	relative viability ([2]; 4 µM)	relative viability ([3]; 0.08 µM)	relative viability ([3]; 0.8 µM)	relative viability ([3]; 2.53 µM)	relative viability ([3]; 8 µM)	relative viability ([4]; 0.04 µM)	relative viability ([4]; 0.1265 µM)	relative viability ([4]; 0.4 µM)	relative viability ([4]; 4 µM)	relative viability ([5]; 0.04 µM)	relative viability ([5]; 0.1265 µM)	relative viability ([5]; 0.4 µM)	relative viability ([5]; 1.265 µM)	relative viability ([5]; 4 µM)	relative viability ([2]; 1.265 µM)
NCI-H1623	0.984	0.964	0.955	1.09	0.979	0.983	0.856	0.926	0.988	1.06	0.972	0.942	0.973	1.02	0.957	0.963	1.14	1.04	0.879	0.933	–
NCI-H1648	0.794	1.05	0.788	0.809	0.728	0.878	0.451	0.963	1.21	0.92	0.954	0.871	0.796	1.06	0.757	0.958	0.938	0.893	0.889	0.939	0.368
NCI-H1650	0.826	1.17	1.12	0.904	0.92	0.812	0.723	0.994	1.08	0.942	0.877	0.95	0.999	0.949	0.769	1.06	0.851	0.799	0.818	0.851	0.871
NCI-H1651	0.947	1.05	1.05	0.994	0.993	0.986	1.07	0.992	1.03	1.03	0.946	0.954	0.954	1.03	0.981	1.01	0.935	0.955	0.92	0.958	0.976
NCI-H1666	0.988	1.03	0.976	1.03	1.03	0.847	0.864	0.939	1.06	0.976	1.01	0.983	1.05	1.03	0.903	0.958	1.03	1.04	1	0.981	0.869
NCI-H1703	–	0.879	0.943	0.778	0.983	0.663	0.954	0.99	1.79	0.899	0.838	1.26	0.763	0.797	0.668	1.12	0.754	1.14	0.527	0.363	0.941
NCI-H1734	1.03	1.01	0.983	0.88	0.978	0.959	1.1	1.05	1.23	1.19	0.874	1.01	1.03	1.04	1.12	0.977	0.916	1.11	0.95	1.06	0.886
NCI-H1755	1.09	1.05	1.06	1.02	1.03	0.99	1.01	0.986	1.03	1.02	0.892	1.01	0.986	1.03	1.01	1.03	0.959	0.966	0.944	0.99	1.02
NCI-H1792	0.788	1.07	1.1	1.01	1.08	1	1.03	0.924	1.07	1.11	1.06	0.895	0.8	0.9	0.797	0.912	0.707	0.861	0.827	0.782	0.834
NCI-H1793	1.1	1.07	1.07	–	0.942	0.985	0.792	0.918	1.08	1.06	0.431	1.01	0.866	1.05	0.581	0.902	0.879	1.07	0.839	0.774	0.668
NCI-H1915	1.1	1.06	1.01	1.03	1.06	1.01	0.745	1.08	1.07	1.04	0.983	0.966	0.985	1.01	0.748	1.05	0.943	1.01	0.981	0.992	1.13
NCI-H1944	0.971	1.13	1.05	0.988	1.01	0.913	0.902	1	1.07	1.06	0.961	–	0.958	1.03	0.952	0.987	0.848	1.1	1.01	0.907	0.972
NCI-H1975	1.13	1.09	0.971	0.951	0.972	0.835	0.454	1.03	0.959	0.94	1.04	0.932	0.901	0.935	0.738	0.972	0.919	1.01	0.787	0.841	0.844
NCI-H1993	0.926	0.834	0.991	0.879	0.998	0.9	0.861	1.05	0.888	1.05	0.843	1.07	0.96	0.761	0.938	0.818	0.871	0.923	0.748	0.815	0.611
NCI-H2009	1.01	1.1	1.09	1.05	1.07	0.931	0.947	1.01	1.19	0.959	1	1.05	1.01	0.935	0.766	1.15	0.928	1.1	0.952	0.98	0.951
NCI-H2023	–	1.11	1.13	1.04	0.958	0.795	0.633	1	0.926	1.07	0.736	1.04	0.937	0.773	0.681	1.02	0.88	1.12	0.893	0.933	0.725
